# Where two headings read alike, the source gives them in different places.
# Legend:
# [1] = system: multiple myeloma; conditions: cited from earlier work
# [2] = system: OPM2 xenograft
# Procedure: FIGS. 4A-B. Study #2 (OPM2-16), Antitumor Activity, Elotuzumab Efficacy in Combination with Pomalidomide and Dexamethasone in OPM2 Multiple Myeloma Xenograft. Mice with established OPM2 xenograft tumors were randomized into 2 groups with 8 mice per group and were administered one of the following sets of regimens: (A) Control group was left untreated (filled circles), elotuzumab (0.5 mg/kg, twice weekly IP for 6 doses starting d12, open circles), dexamethasone (5 mg/kg, daily IP for 7 doses starting on d12, open triangles), elotuzumab (0.5 mg/kg, twice weekly IP for 8 doses starting d12) plus dexamethasone combination (filled triangles), pomalidomide (5 mg/kg, daily for 5 days orally starting on d12 and then again for 5 days on d19) plus dexamethasone combination (dashes); or (B) Control group was left untreated (filled circles), elotuzumab (0.5 mg/kg, twice weekly IP for 6 doses starting d12, open circles), pomalidomide (5 mg/kg, daily for 5 days orally starting on d12 and then again for 5 days on d19, open squares), elotuzumab (0.5 mg/kg, twice weekly IP for 8 doses starting d12) plus pomalidomide combination (filled squares), elotuzumab (0.5 mg/kg, twice weekly IP for 8 doses starting d12) plus pomalidomide plus dexamethasone combination (x's). The data are presented as means+/−standard deviation.
# (§1) FIGS. 5A-H. Study #2 (OPM2-16), Anti Tumor Activity of Elotuzumab, Pomalidomide, and Dexamethasone as Single Agent and Combination Treatment in OPM2 Multiple Myeloma Xenograft tumor model. Mice with established OPM2 xenograft tumors were randomized into groups with 8 mice per group and were administered one of the following regimens: (A): untreated (control); (B): elotuzumab; (C): pomalidomide; (D): dexamethasone; (E): elotuzumab plus pomalidomide; (F): elotuzumab plus dexamethasone; (G): pomalidomide plus dexamethasone; or (H): elotuzumab plus pomalidomide plus dexamethasone. Data represent tumor weight measured in individual animals. Dosing route and regimen are described in FIG. 4 and Example 1.
# (§2) Animals: All mice were obtained from Taconic Biosciences (Germantown, N.Y.), and maintained in ammonia-free environment in a defined and pathogen-free colony. All animal procedures were approved by the Bristol-Myers Squibb (BMS) Institutional Animal Care and Use Committee. The animal care and use program at BMS has been fully accredited by the Association for Assessment and Accreditation of Laboratory Animal Care International (AAALAC).
# (§3) Animal Models: The human tumor xenograft OPM2 was grown in IcrTac scid mice (ICRPrkdcscid). Treated animals were checked daily for treatment related toxicity/mortality. Each group of animals was weighed before the initiation of treatment (Wt1) and then weighed again following the last treatment dose (Wt2). The difference in body weight (Wt2-Wt1) provides a measure of treatment-related toxicity. Additional weights were recorded at each measurement date to monitor toxicity.
# (§4) Tumor response was determined by measurement of tumors with a caliper twice a week, until the tumors reached a predetermined “target” size of 1 gm. Tumor weights (mg) were estimated from the formula: Tumor weight=(length×width2)/2.
# (§5) Tumor response end-point was expressed in terms of tumor cell kill and tumor growth inhibition. Tumor growth delay was defined as the difference in time (days) required for the treated tumors (T) to reach a predetermined target size compared to those in the control group (C). For this purpose tumor weight of a group was expressed as […] tumor weight (MTW).
# (§6) Tumor cell kill was expressed in terms of log cell kill (LCK), represented by the equation LCK=[…] where tumor volume doubling time (TVDT) was first calculated with the formula: TVDT=Median time (days) for control tumor weight to reach target size−Median time (days) for control tumor weight to reach half the target size.
# [3] = system: OPM2 xenograft; remark: listed apart in the source
# Procedure: Mice with established OPM2 xenograft tumors were randomized into 2 groups with 8 mice per group and were administered one of the following sets of regimens: (A) Control group was left untreated (filled circles), elotuzumab (0.5 mg/kg, twice weekly IP for 7 doses starting d16, open circles), dexamethasone (5 mg/kg, daily IP for 7 doses starting on d16, open triangles), elotuzumab plus dexamethasone combination (filled triangles), pomalidomide (5 mg/kg, daily for 5 days orally starting on d16 and then again for 5 days on d23) plus dexamethasone combination (dashes); or (B) Control group was left untreated (filled circles), elotuzumab (0.5 mg/kg, twice weekly IP for 7 doses starting d16, open circles), pomalidomide (5 mg/kg, daily for 5 days orally starting on d16 and then again for 5 days on d23, open squares), elotuzumab (0.5 mg/kg, twice weekly IP for 10 doses starting d16) plus pomalidomide combination (filled squares), elotuzumab (10 doses) plus pomalidomide plus dexamethasone combination (x's). The data are presented as means+/−standard deviation.
# as §1, with “Mice” for “FIGS. 5A-H. Study #2 (OPM2-16), Anti Tumor Activity of Elotuzumab, Pomalidomide, and Dexamethasone as Single Agent and Combination Treatment in OPM2 Multiple Myeloma Xenograft tumor model. Mice”, “2” for “4”
# as §2, §3, §4, §5, §6
# [4] = system: refractory or relapsed and refractory MM; conditions: MM-003; cited from earlier work
# [5] = system: multiple myeloma; conditions: treated multiple myeloma patients; cited from earlier work
# [6] = in combination with dexamethasone as induction therapy before ASCT
# [7] = three-drug induction: bortezomib-dexamethasone plus the named drug
# [8] = Study #2, ELO 0.5, POM 5, DEX 5 mg/kg, mice of 8
# [9] = Study #1, ELO 0.5, POM 5, DEX 5 mg/kg, mice of 8
compound,measurement,setting,value
O=C1CCC(N2C(=O)c3ccccc3C2=O)C(=O)N1 (stereo not drawn) [thalidomide],rates of nearly CR,[1]; [6],8%
same,rates of nearly CR,[1]; [7],32%
C[C@@H]1C[C@H]2[C@@H]3CCC4=CC(=O)C=C[C@]4(C)[C@@]3(F)[C@@H](O)C[C@]2(C)[C@@]1(O)C(=O)CO [Dexamethasone],Median Days to Target Size,"[2]; Study #2, ELO 0.5 mg/kg IP 2QW from d12, POM 5 mg/kg PO QD × 5 d12, 19, DEX 5 mg/kg IP QD × 7 from d12, target size 1 gm",25.7 days
same,LCK,"[2]; Study #2, ELO 0.5, POM 5, DEX 5 mg/kg",0.63
same,CR (complete tumor regressions),[2]; [8],0/8
same,PR (partial tumor regressions),[2]; [8],0/8
same,TGI,"[2]; Study #2, ELO 0.5, POM 5, DEX 5 mg/kg, versus untreated mice",62.8%
same,Max % Weight Loss,"[2]; mouse, in vivo",−9.0%
same,Median Days to Target Size,"[3]; Study #1, ELO 0.5 mg/kg IP 2QW from d16, POM 5 mg/kg PO QD × 5 d16, 23, DEX 5 mg/kg IP QD × 7 from d16, target size 1 gm",28.0 days
same,LCK,"[3]; Study #1, ELO 0.5, POM 5, DEX 5 mg/kg",0.14
same,CR (complete tumor regressions),[3]; [9],0/8
same,PR (partial tumor regressions),[3]; [9],0/8
same,TGI,"[3]; Study #1, ELO 0.5, POM 5, DEX 5 mg/kg, versus untreated mice",50.4%
same,Max % Weight Loss,"[3]; mouse, in vivo",−5.7%
same,grade 3-4 anemia,[4],37%
same,grade 3-4 bone pain,[4],5%
same,grade 3-4 fatigue,[4],6%
same,grade 3-4 neutropenia,[4],16%
same,grade 3-4 pneumonia,[4],8%
same,grade 3-4 thrombocytopenia,[4],26%
Nc1cccc2c1CN(C1CCC(=O)NC1=O)C2=O (stereo not drawn) [lenalidomide],rates of nearly CR,[1]; [6],15%
same,rates of nearly CR,[1]; [7],57%
same,response rate,[5],40%-50%
CC(C)C[C@H](NC(=O)[C@H](Cc1ccccc1)NC(=O)c1cnccn1)B(O)O [bortezomib],rates of nearly CR,[1]; [6],16%
same,response rate,[5],38%
O=P1(N(CCCl)CCCl)NCCCO1 (stereo not drawn) [cyclophosphamide],rates of nearly CR,[1]; [7],39%
COc1cccc2c1C(=O)c1c(O)c3c(c(O)c1C2=O)C[C@@](O)(C(=O)CO)C[C@@H]3O[C@H]1C[C@H](N)[C@H](O)[C@H](C)O1 [doxorubicin],rates of nearly CR,[1]; [7],7%

# Reference: patent publication US10925867B2, “Immunotherapeutic dosing regimens comprising pomalidomide and an anti-CS1 antibody for treating cancer” (Bristol-Myers Squibb Company, priority 2015, dated 2021)
